Experimental data as given in patent publication US7662851B2, “Use of specific cyklolignans” (Axelar AB, priority 2001, dated 2010).
Where two headings read alike, the source gives them in different places.

Experiments:
[1] = Systemic toxicity, daily intraperitoneal injection in nude mice; conditions: for Signs of disease: up to 5 days
Description: Four to five-week old pathogen-free nude mice (nu/nu) were used and housed within plastic isolators in a sterile facility. […] Experimental treatments with podophyllotoxin, deoxypodophyllotoxin or picropodophyllin were performed by daily intraperitoneal injections of the compound in 100 μl volume of solvent, composed of a mixture of DMSO and physiological saline (8:2). Control mice were treated with the solvent. 3-6 animals were treated in each group. Animals were monitored three times a week for signs of disease and tumor growth. Tumor mass was estimated using the formula (d^2×D)/2, where d and D represent the small and large diameters of the tumor, respectively. The mice were carefully observed for presence of side effects and were sacrificed at the end of the experiments for histological analysis of the lesions. All experiments were performed according to the ethical guidelines for laboratory animal use, provided by institutional ethical committee.
In the next experiment we analyzed systemic effects of the drugs by injecting 100 μl intraperitoneally of each compound daily over 5 days. Two doses were injected (7 or 28 mg/kg/d) and 3-6 mice were used for each drug and dose. The mice were checked carefully daily for signs of discomfort, diseases and weight loss.

HepG2 hepatoma cell line = test: Cell viability (XTT), HepG2; assay type: cell-based
Description: (§1) Cell proliferation kit II (Roche Inc.) is based on colorimetric change of the yellow tetrazolium salt XTT in orange formazan dye by the respiratory chain of viable cells (Roehm, N W, et al., J Immunol Methods 142:257-265, 1991). Cells seeded at a concentration of 5000/well in 100 μl medium in a 96-well plate were treated with different drugs in the given concentration. After 24 or 48 h the cells were incubated, according to the manufacturer's protocol, with XTT labelling mixture. After 4 h the formazan dye is quantified using a scanning multiwell spectrophotometer with a 495-nm filter. The absorbance is directly correlated with the number of viable cells. The standard absorbance curve was drawn by means of untreated cells seeded at a concentration of from 1000 to 10 000 cells/well with an increasing rate of 1000 cells/well. All standards and experiments were performed in triplicates.
(§2) 12 different types of cell lines were seeded in 96-well plates (medium volume in a well was 100 μl), at a concentration of 10,000 cells/cm^2 in Minimal Essential Medium supplemented with fetal calf serum. When the cells had reached a concentration of 65,000 cells/cm^2, they were treated with different doses of podophyllotoxin and picropodophyllin for 48 h. Cell viability was then assayed (see above). […]

[2] = test system: RD-ES Ewing's sarcoma cell line; test: Cell viability (XTT), RD-ES; assay type: cell-based; conditions: Homo sapiens, 48 h, read-out: EC50 for cell viability
Description: as §1, §2

[3] = test system: insulin substrate-1 (IRS-1); test: Phosphorylation of IRS-1 in intact FM55 melanoma cells; assay type: cell-based; conditions: 0.05 μM, 1 h
Description: (§3) Cells were cultured to subconfluency in 6-cm plates, and then fresh medium containing 10% FBS and the desired compounds were added for 1 h. The cells were then lyzed and subjected to immunoprecipitation using specific antibodies. Immunoprecipitates were resolved by sodium dodecyl sulphate polyacrylamide gel electrophoresis (SDS-PAGE) and transferred to nitro-cellulose membranes and incubated with anti-phosphotyrosine antibody. Antibodies to actin (in cell extract) or IGF-1R beta subunit were used as loading controls. After detection the films were scanned for quantification.
(§4) FM55 melanoma cells were cultured in the same way as described in Experiment 1. When reaching a density of 65,000 cells/cm^2 in the dishes, they were treated for 1 h with 0 (control) and 0.05 μM of picropodophyllin and podophyllotoxin, respectively. The cells were then isolated and subjected to immunoprecipitation of the IGF-1R, fibroblast growth factor receptor (FGFR), platelet-derived growth factor receptor (PDGFR), epidermal growth factor receptor (EGFR), insulin receptor (IR) and insulin substrate-1 (IRS-1) using antibodies to respective molecules. IRS-1 is a substrate of IGF-1R, and therefore its phosphorylation is dependent on phosphorylated IGF-1R. Gelelectrophoresis, Western blotting and quantification of the different signals were performed as described above.

IGF-1R = IGF-1R (Homo sapiens, UniProt P08069); test: IGF-1R phosphorylation in various malignant cell types (EC50); assay type: cell-based; parameters: endogenous in cells; host or cells: 12 malignant cell lines (e.g. SK-MEL-2, SK-MEL-5, SK-MEL-28); conditions: 1 h
Description: as §3
12 cell lines of different origins were seeded in 6-cm dishes, at a concentration of 10,000 cells/cm^2 in Minimal Essential Medium supplemented with fetal calf serum (FCS). When the cells had reached a concentration of 65,000 cells/cm^2, they were treated with 0, 0.01, 0.025, 0.05, 0.1 or 1.0 uM doses of podophyllotoxin and picropodophyllin for 1 h. The cells were then harvested for assay and quantification of IGF-1R phosphorylation as described above. The EC50 value, the Efficient Concentration 50%, i.e. the concentration needed to reduce the phosphorylation with 50%, for each inhibitor and cell line, is then calculated. The results are based on two different experiments.

[4] = test system: MCF-7 breast cancer cell line; test: Cell viability (XTT), MCF-7; assay type: cell-based; conditions: Homo sapiens, read-out: EC50 for cell viability
Description: as §1, §2

insulin receptor (IR) = target: T1, insulin receptor (IR) (Homo sapiens, UniProt P06213); test: Tyrosine phosphorylation of IR in intact FM55 melanoma cells; assay type: cell-based; conditions: 0.05 μM, 1 h
T1 construct: endogenous in cells; host or cells: FM55 melanoma cells
Description: as §3, §4

[5] = test system: platelet-derived growth factor receptor (PDGFR); test: Tyrosine phosphorylation of PDGFR in intact FM55 melanoma cells; assay type: cell-based; conditions: 0.05 μM, 1 h
Description: as §3, §4

[6] = test system: P6 cells (fibroblasts with overexpressed IGF-1R); test: Cell viability (XTT), P6; assay type: cell-based, murine; conditions: Mus musculus, Fibroblast, 48 h, read-out: EC50 for cell viability
Description: as §1, §2

[7] = P6 fibroblasts with overexpressed IGF-1R

Sequence of IGF-1R (P08069 31-1367): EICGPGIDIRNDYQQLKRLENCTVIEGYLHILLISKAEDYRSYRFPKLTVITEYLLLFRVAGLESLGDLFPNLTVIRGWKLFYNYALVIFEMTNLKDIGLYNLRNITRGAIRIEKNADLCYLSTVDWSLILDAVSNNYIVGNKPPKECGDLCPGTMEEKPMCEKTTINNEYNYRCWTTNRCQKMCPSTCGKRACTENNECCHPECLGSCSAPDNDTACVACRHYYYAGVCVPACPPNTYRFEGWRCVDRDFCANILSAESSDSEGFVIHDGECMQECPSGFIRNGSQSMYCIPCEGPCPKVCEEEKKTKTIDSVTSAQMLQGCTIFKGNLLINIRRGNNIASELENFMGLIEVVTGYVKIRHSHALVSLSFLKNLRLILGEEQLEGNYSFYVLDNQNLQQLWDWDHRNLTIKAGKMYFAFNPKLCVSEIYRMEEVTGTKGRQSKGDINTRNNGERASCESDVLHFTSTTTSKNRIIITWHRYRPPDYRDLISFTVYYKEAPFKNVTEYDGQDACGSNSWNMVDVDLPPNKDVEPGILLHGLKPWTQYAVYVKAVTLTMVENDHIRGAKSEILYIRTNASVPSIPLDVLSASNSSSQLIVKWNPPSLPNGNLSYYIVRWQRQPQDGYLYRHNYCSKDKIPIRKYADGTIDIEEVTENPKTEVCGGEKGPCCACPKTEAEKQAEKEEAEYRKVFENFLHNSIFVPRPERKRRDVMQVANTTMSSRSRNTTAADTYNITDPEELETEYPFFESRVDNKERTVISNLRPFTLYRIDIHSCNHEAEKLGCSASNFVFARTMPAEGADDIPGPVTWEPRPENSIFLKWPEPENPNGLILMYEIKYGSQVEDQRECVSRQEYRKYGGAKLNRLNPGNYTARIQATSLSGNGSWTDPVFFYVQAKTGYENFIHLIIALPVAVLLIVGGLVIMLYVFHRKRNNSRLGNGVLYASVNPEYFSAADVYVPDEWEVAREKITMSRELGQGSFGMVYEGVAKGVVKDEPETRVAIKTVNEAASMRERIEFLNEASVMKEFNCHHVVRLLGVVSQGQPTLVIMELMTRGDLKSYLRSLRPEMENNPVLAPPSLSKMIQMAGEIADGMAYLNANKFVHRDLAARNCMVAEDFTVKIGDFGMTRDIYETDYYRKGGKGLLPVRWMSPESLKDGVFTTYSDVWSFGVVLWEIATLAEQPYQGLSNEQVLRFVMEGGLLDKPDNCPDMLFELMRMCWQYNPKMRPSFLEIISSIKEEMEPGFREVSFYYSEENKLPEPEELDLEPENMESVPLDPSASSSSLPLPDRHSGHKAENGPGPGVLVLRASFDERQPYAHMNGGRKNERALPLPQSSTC
T1 sequence (P06213 28-1382): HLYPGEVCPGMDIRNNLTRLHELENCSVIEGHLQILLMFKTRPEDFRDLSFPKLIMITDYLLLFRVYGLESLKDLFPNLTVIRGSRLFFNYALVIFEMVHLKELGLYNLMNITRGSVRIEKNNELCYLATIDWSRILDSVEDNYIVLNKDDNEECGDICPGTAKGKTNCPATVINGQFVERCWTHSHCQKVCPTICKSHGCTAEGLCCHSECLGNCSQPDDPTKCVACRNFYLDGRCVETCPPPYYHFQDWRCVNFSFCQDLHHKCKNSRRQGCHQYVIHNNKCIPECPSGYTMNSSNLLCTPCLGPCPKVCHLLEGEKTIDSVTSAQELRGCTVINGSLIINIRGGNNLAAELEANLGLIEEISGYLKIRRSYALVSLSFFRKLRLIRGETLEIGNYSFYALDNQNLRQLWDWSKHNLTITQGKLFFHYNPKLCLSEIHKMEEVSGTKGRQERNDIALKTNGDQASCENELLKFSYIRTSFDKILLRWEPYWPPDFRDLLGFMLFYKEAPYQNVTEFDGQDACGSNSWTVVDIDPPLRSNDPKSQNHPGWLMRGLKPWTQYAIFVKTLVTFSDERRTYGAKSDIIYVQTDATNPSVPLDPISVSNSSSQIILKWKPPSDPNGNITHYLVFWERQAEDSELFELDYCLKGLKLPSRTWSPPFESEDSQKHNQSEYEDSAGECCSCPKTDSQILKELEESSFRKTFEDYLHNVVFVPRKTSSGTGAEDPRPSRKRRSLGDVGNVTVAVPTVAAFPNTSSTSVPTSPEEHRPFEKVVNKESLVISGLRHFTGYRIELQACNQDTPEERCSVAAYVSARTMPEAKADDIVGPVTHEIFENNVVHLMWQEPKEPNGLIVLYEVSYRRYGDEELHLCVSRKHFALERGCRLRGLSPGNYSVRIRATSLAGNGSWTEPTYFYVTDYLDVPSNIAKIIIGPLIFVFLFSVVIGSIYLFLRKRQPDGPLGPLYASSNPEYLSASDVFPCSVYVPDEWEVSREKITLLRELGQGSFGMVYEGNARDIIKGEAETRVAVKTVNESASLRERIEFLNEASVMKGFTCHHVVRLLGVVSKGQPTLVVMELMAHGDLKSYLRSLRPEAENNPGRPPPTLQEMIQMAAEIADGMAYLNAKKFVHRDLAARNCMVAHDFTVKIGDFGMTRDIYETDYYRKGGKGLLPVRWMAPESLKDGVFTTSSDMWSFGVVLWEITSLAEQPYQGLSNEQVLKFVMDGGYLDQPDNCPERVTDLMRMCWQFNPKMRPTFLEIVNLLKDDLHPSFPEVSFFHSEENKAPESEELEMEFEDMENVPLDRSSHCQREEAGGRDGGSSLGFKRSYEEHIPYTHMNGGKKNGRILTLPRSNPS

For `COc1cc([C@@H]2c3cc4c(cc3[C@H](O)[C@H]3COC(=O)[C@@H]23)OCO4)cc(OC)c1OC` [Picropodophyllin, picropodophyllin], the “Surviving mice/Investigated mice” value ([1]; 7 mg/kg/d i.p., 1 d) was 3/3, the “Surviving mice/Investigated mice” value ([1]; 7 mg/kg/d i.p., 2 d) was 3/3 and the “Surviving mice/Investigated mice” value ([1]; 7 mg/kg/d i.p., 3 d) was 3/3. The “Surviving mice/Investigated mice” value ([1]; 7 mg/kg/d i.p., 4 d) was 3/3, the “Surviving mice/Investigated mice” value ([1]; 7 mg/kg/d i.p., 5 d) was 3/3 and the “Surviving mice/Investigated mice” value ([1]; 28 mg/kg/d i.p., 1 d) was 6/6. For the same molecule, the “Surviving mice/Investigated mice” value ([1]; 28 mg/kg/d i.p., 2 d) was 6/6, the “Surviving mice/Investigated mice” value ([1]; 28 mg/kg/d i.p., 3 d) was 6/6 and the “Surviving mice/Investigated mice” value ([1]; 28 mg/kg/d i.p., 4 d) was 6/6. The “Surviving mice/Investigated mice” value ([1]; 28 mg/kg/d i.p., 5 d) was 6/6, the “Signs of disease” value ([1]; high dose (28 mg/kg/d) i.p. daily) was “did not exhibit any evidence of disease” and the “Signs of disease” value ([1]; low dose (7 mg/kg/d) i.p. daily) was “did not exhibit any evidence of disease”. The EC50 (HepG2 hepatoma cell line; Homo sapiens, HepG2, 48 h; read-out: EC50 for cell viability) was greater than 15000 nM, the EC50 [2] was 100 nM and the “Level of phosphorylation in intact cells, substrate IRS-1” value [3] was 17 % OD. For the same molecule, the EC50 (IGF-1R; FM55 melanoma) was 60 nM, the EC50 (IGF-1R; MCF-7 breast cancer) was 40 nM and the EC50 (IGF-1R; [7]) was 30 nM. For the same molecule, the EC50 (IGF-1R; PC-3 prostate cancer) was 90 nM, the EC50 (IGF-1R; RD-ES Ewing's sarcoma) was 50 nM and the EC50 (IGF-1R; SK-MEL-5 melanoma) was 40 nM. The EC50 (IGF-1R; SK-MEL-28 melanoma) was 40 nM, the EC50 ([4]; MCF7, MCF-7, 48 h) was 90 nM and the “Level of phosphorylation in intact cells, substrate IR” value (insulin receptor (IR)) was 100 % OD. For the same molecule, the “Level of phosphorylation in intact cells, substrate PDGFR” value [5] was 104 % OD and the EC50 ([6]; P6 (fibroblasts with overexpressed IGF-1R)) was 20 nM.
For `COc1cc([C@@H]2c3cc4c(cc3[C@H](O)[C@H]3COC(=O)[C@H]23)OCO4)cc(OC)c1OC` [Podophyllotoxin, podophyllotoxin], the “Surviving mice/Investigated mice” value ([1]; 7 mg/kg/d i.p., 1 d) was 3/3, the “Surviving mice/Investigated mice” value ([1]; 7 mg/kg/d i.p., 2 d) was 1/3 and the “Surviving mice/Investigated mice” value ([1]; 7 mg/kg/d i.p., 3 d) was 0/3. The “Surviving mice/Investigated mice” value ([1]; 28 mg/kg/d i.p., 1 d) was 2/6, the “Surviving mice/Investigated mice” value ([1]; 28 mg/kg/d i.p., 2 d) was 0/6 and the “Animals dead within 2 days” value ([1]; high dose (28 mg/kg/d) i.p.) was 100%. The “Animals dead within 2 days” value ([1]; low dose (7 mg/kg/d) i.p.) was 67%, the EC50 (HepG2 hepatoma cell line; Homo sapiens, HepG2, 48 h, read-out: EC50 for cell viability) was greater than 15000 nM and the EC50 [2] was 100 nM. The “Level of phosphorylation in intact cells, substrate IRS-1” value [3] was 10 % OD, the EC50 (IGF-1R; BE melanoma) was 40 nM and the EC50 (IGF-1R; DWB melanoma) was 30 nM. It also gave an EC50 (IGF-1R; FM55 melanoma) of 40 nM, an EC50 (IGF-1R; MCF-7 breast cancer) of 50 nM and an EC50 (IGF-1R; [7]) of 20 nM. The EC50 (IGF-1R; PC-3 prostate cancer) was 60 nM, the EC50 (IGF-1R; RD-ES Ewing's sarcoma) was 30 nM and the EC50 (IGF-1R; SK-MEL-2 melanoma) was 40 nM. It also gave an EC50 (IGF-1R; SK-MEL-5 melanoma) of 30 nM, an EC50 (IGF-1R; SK-MEL-28 melanoma) of 30 nM and an EC50 ([4]; MCF7, 48 h) of 70 nM. For the same molecule, the “Level of phosphorylation in intact cells, substrate IR” value (insulin receptor (IR)) was 101 % OD, the “Level of phosphorylation in intact cells, substrate PDGFR” value [5] was 100 % OD and the EC50 [6] was 30 nM.
